What all share (type): functional, cell-based
Assay [1] concerns B16. Briefly: Antimigratory activity against mouse B16 cells assessed as inhibition of MMP9 mRNA level after 24 hrs by SYBR staining based real-time qPCR assay. The note with it: B16, 24 h.
Another assay deals with A549. Briefly: Antimigratory activity against human A549 cells after 24 hrs by crystal violet staining based inverted microscopic method.
Assay [2] deals with B16. Briefly: Antimigratory activity against mouse B16 cells assessed as decrease in IL-6 mRNA level by SYBR staining based real-time qPCR assay.
The subject of assay [3] is B16. As to the kind of experiment: Antimigratory activity against mouse B16 cells assessed as decrease in TGFbeta mRNA level by SYBR staining based real-time qPCR assay.
Assay [4] concerns B16. As to the kind of experiment: Antimigratory activity against mouse B16 cells assessed as decrease in IL-1beta mRNA level by SYBR staining based real-time qPCR assay.
For assay [5], the system named is B16. Briefly: Antimigratory activity against mouse B16 cells after 24 hrs by crystal violet staining based inverted microscopic method.
In assay [6] the test system is B16. Briefly: Antimigratory activity against mouse B16 cells assessed as decrease in TNFalpha mRNA level by SYBR staining based real-time qPCR assay.
The test system of assay [7] is B16. As to the kind of experiment: Antimigratory activity against mouse B16 cells assessed as inhibition of VEGF mRNA level after 24 hrs by SYBR staining based real-time qPCR assay. The note with it: B16, 24 h.
Assay [8] concerns B16. Briefly: Antimigratory activity against mouse B16 cells assessed as inhibition of MMP2 mRNA level after 24 hrs by SYBR staining based real-time qPCR assay. To be noted: B16, 24 h.

The structures appear in SMILES notation. pIC50: −log10 of the molar value.

On to `C=C[C@H]1CC[C@H]2[C@@H]3CC[C@H]4CC(=O)/C(=C5\NC=Cc6nc[nH]c65)C(=O)[C@]4(C)[C@H]3CC[C@]12C`, for which the pIC50 with B16 [1] was 4.91; in the assay with B16 [7] it was 5.12; in the assay on B16 [8] it was 5.24. Moreover, the Activity entry in the assay with A549, in the assay on B16 [2], with B16 [3], with B16 [4], in the assay on B16 [5] and in the assay on B16 [6] was “Dose-dependent effect” each time.
For `C=C[C@H]1CC[C@H]2[C@@H]3CC[C@H]4CC(=O)/C(=C5\NCCc6nc[nH]c65)C(=O)[C@]4(C)[C@H]3CC[C@]12C`, the pIC50 with B16 [1] is 5.28; in the assay on B16 [7], 5.08; with B16 [8] it was 5.18. Moreover, the Activity entry in the assay with A549, in the assay with B16 [2], in the assay with B16 [3], in the assay on B16 [4], in the assay with B16 [5] and in the assay on B16 [6] was “Dose-dependent effect” throughout.

These data come from ChEMBL document CHEMBL4024733, “An unusual spinaceamine-bearing pregnane from a soft coral Scleronephthya sp. inhibits the migration of tumor cells” (Bioorg Med Chem Lett, 2017).
